The source made the active and inactive calls. How the calls were made is not given here.

From PubChem BioAssay AID602273 (Broad Institute, 2012) come the findings set out here.

The nature of the first test: rescue of alpha-synuclein yeast toxicity, dose response, S. cerevisiae, plate reader, cherry-pick (AID 602273). Conditions: S. cerevisiae alpha-synuclein toxicity rescue, OD600 growth, 24 h; at 12 µM (top of the series).
As for `O=C(NC1C(=O)NNC1c1ccccc1)c1ccccc1` (centres undefined), the growth rescue activity was 8.13% (inactive).

Still in this test, the particulars now being: S. cerevisiae alpha-synuclein toxicity rescue, OD600 growth, 24 h; at 26 µM (top of the series).
As to `CC(=O)N1N=C(c2ccccc2)CC1c1ccccc1[N+](=O)[O-]` (centres undefined), the growth rescue activity was 2.51% (inactive). The same measure, in the same setting: with `CCC(=O)Nc1cccc(C(=O)/C=C/c2ccc(F)cc2)c1` the figure was -9.73% (inactive); with `COc1ccc(C(=O)Cn2c(C(=O)/C=C/c3ccccc3)nc3ccccc32)cc1`, 1.68% (inactive); with `Cc1ccc(N2C(=O)SC(N(CC(=O)O)c3ccc(C)cc3)C2=O)cc1` (centres undefined), -2.3% (inactive). On the same count and under the same terms, the figure for `CCN1C(=O)CC(N2CCN(c3ccc(C(=O)c4ccccc4)cc3)CC2)C1=O` (centres undefined) is -0.853% (inactive); for `CC(C)C(=O)N1CCC(n2nccc2NC(=O)CCOc2ccccc2)CC1` it is -1.45% (inactive); for `CCc1c(C)sc(NC(=O)c2ccc(Br)o2)c1C(=O)OC` it is 5.35% (inactive). As to `CCOC(=O)C1(Cc2ccc(OC)cc2)CCN(C(=O)c2cc3ccccc3[nH]2)CC1`, the growth rescue activity was 1.19% (inactive).

For the compound `Cc1ccc(N2C(=O)NC(=O)/C(=C\C=C\c3ccco3)C2=O)cc1C`, the growth rescue activity was 1.5% (inactive). Same read-out and setting: with `Cc1ccc(C2=Nc3ccccc3NC(C)(c3ccc(C)o3)C2)o1` (centres undefined) the figure was 0.617% (inactive). The same measure, in the same setting: the figure for `CN(CCC1CCCCO1)C(=O)CCc1nnc(CCCCc2ccccc2)o1` (centres undefined) is 1.7% (inactive); for `CC(=O)Nc1cccc(NC(=O)CSc2ncc(C(=O)Nc3ccccc3)c(=O)n2C)c1` it is -9.48% (inactive); for `CC(OC(=O)/C=C/c1ccc2ccccc2n1)C(=O)NCc1ccccc1` (centres undefined) it is 3.64% (inactive). On the same count and under the same terms, with `COc1cccc(-c2nnc(SCc3nc4ccccc4[nH]3)n2N)c1` the figure was 1.34% (inactive). For `Cc1cc(C)n(CC(O)COc2ccc(Cl)cc2Cl)n1` (centres undefined), the growth rescue activity was 9.05% (inactive). Same read-out and setting: with `COc1ccc(C(c2c(O)ccc3ccccc23)N2CCOCC2)c(OC)c1` (centres undefined) the figure was -24.5% (inactive); with `COC(=O)C(C)Sc1ncnc2c1nnn2-c1ccc(F)cc1` (centres undefined), -1.99% (inactive).

Regarding `CC(=O)c1ccc(NC(=O)CCCN2C(=O)/C(=C/C(C)=C/c3ccccc3)SC2=S)cc1`, the growth rescue activity was -5.11% (inactive).

As for `CCOC(=O)c1c(C)c(C(=O)Nc2ccc3c(c2)OCO3)c(C)n1C`, the growth rescue activity is 2.62% (inactive). As to `Brc1cnc2nc(SC/C=C/c3ccccc3)[nH]c2c1`, the growth rescue activity was 0.58% (inactive). Same read-out and setting: the figure for `C=CCn1c(C)cc(C(=O)CSc2nc(N)cc(N)n2)c1C` is 0.814% (inactive); for `Cc1[nH]c2ccccc2c1/C=C(\C#N)C(=O)NCC1CCCO1` (centres undefined) it is 4.73% (inactive). Same read-out and setting: with `COc1ccc(OCc2nnnn2-c2ccccc2)cc1` the figure was -3.39% (inactive); with `O=C(Nc1ccc2c(c1)C(=O)OC2)c1ccc(Cl)cc1`, -1.79% (inactive); with `O=C1NCC2=C1C(c1ccc(Br)cc1)Nc1ccccc1N2` (centres undefined), -8.45% (inactive).

As for `Nc1ccc(Sc2cnn(-c3ccccc3)c(=O)c2Cl)cc1`, the growth rescue activity was 1.77% (inactive).

`C/C(=N\NC(=O)c1ccoc1C)c1cccc2ccccc12`: the growth rescue activity was 8.58% (inactive).

Regarding `O=C(CC12CCC(CC1)C2)NCc1ccc2c(c1)OCO2`, the growth rescue activity was 2.83% (inactive). Same read-out and setting: the figure for `CCn1c(SCC(=O)c2ccc(Cl)cc2)nnc1-c1ccoc1C` is 2.33% (inactive); for `Fc1ccccc1-c1nc2nc3ccccc3nc2n1CC1CCCO1` (centres undefined) it is 11.6% (inactive); for `Cc1nc2ccccc2nc(C)c1=NOCc1ccccc1Cl` it is 0.053% (inactive). On the same count and under the same terms, with `Cc1ccc(-n2cc(CNCCN3CCOC3=O)c(-c3cccc(C)c3)n2)cc1` the figure was 0.352% (inactive); with `N#Cc1ccc(OCCN2CCc3ccccc3C2)cc1`, 4.6% (inactive).
